Experiment [1] has as its target pEGFR (Tyr1068) in PC-9 cells (Ex19Del) (Homo sapiens (Human), UniProt P00533, DEL746-750). Briefly: PC-9 pEGFR AlphaLISA assay. In kind it is cell-based. The settings on record: 4 hours incubation, p-EGFR (Tyr1068) AlphaLISA, read-out: Ext pEGFR_PC-9 Ex19Del IC50. The essentials: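 Cells seeded in phenol-free DMEM with 10% FBS adhered overnight at 37° C./5% CO2, then were exposed for 4 hours to a 4-fold, 10-point compound dilution series. After lysis, phospho-EGFR was read by AlphaLISA SureFire Ultra, and IC50 was fitted from percent inhibition versus log concentration.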
For orientation: In Alpha technology, singlet oxygen from a donor bead excites a nearby acceptor bead.

The next experiment has as its target EGFR L858R (Homo sapiens (Human), UniProt P00533, L858R). Nature of the experiment: Biochemical EGFR inhibition assay, EGFR L858R. As to conditions: Caliper mobility shift; 1.0 mM ATP or ATP Km; read-out: Enz EGFR_L858R IC50.
In another experiment the target is EGFR (d746-750) (Homo sapiens (Human), UniProt P00533, DEL746-750). Nature of the experiment: Biochemical EGFR inhibition assay, EGFR (d746-750). As to conditions: Caliper mobility shift; 1.0 mM ATP or ATP Km; read-out: Enz EGFR_Exon19-del746-750 IC50.
Sequence of EGFR (d746-750) (P00533 other isoform, or with tags, fused parts or gaps del 1-694/del 746-750 limits assumed): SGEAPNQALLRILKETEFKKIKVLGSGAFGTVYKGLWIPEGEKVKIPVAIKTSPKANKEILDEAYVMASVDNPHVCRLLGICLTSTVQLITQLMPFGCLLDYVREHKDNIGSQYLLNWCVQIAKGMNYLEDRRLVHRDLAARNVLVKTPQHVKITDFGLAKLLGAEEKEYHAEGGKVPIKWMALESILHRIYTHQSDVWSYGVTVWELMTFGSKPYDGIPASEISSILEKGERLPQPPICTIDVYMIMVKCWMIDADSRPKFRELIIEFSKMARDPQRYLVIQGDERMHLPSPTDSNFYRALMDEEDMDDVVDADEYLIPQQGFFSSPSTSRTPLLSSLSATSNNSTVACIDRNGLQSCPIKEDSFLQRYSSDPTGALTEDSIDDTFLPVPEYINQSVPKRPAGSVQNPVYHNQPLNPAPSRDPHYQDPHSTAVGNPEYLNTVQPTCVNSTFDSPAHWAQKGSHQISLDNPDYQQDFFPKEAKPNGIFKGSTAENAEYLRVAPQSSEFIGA

Sequence of pEGFR (Tyr1068) in PC-9 cells (Ex19Del) (P00533 other isoform, or with tags, fused parts or gaps del 746-750): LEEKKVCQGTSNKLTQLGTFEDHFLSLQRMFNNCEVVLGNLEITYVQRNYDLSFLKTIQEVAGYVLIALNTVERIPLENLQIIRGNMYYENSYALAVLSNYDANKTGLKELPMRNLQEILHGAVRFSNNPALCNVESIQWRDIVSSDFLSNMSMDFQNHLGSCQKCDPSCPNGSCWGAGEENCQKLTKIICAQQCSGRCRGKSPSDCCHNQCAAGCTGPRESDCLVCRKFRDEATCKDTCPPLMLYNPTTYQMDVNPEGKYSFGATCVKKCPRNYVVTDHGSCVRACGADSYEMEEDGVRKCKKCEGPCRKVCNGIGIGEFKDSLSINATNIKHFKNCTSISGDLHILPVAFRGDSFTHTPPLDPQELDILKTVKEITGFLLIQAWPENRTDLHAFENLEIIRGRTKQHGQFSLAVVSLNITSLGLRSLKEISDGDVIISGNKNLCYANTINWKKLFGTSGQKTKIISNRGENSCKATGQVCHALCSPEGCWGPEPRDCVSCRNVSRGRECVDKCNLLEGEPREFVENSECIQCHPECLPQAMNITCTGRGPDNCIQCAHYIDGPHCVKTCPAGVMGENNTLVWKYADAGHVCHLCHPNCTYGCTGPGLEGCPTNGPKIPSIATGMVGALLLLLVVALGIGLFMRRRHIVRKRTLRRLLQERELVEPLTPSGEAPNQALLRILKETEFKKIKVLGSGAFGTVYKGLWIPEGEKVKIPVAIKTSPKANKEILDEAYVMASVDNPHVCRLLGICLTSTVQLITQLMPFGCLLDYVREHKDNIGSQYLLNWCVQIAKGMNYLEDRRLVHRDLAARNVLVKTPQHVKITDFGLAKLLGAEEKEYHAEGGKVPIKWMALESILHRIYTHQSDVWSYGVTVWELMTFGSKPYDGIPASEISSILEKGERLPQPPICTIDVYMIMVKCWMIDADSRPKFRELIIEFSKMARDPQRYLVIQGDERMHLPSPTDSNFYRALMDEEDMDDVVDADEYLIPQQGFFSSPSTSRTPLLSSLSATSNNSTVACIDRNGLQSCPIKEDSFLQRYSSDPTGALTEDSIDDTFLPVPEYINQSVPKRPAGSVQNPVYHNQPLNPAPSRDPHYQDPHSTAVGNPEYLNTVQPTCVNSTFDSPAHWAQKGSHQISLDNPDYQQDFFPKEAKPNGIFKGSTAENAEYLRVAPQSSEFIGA
Sequence of EGFR L858R (P00533 25-1210 L858R): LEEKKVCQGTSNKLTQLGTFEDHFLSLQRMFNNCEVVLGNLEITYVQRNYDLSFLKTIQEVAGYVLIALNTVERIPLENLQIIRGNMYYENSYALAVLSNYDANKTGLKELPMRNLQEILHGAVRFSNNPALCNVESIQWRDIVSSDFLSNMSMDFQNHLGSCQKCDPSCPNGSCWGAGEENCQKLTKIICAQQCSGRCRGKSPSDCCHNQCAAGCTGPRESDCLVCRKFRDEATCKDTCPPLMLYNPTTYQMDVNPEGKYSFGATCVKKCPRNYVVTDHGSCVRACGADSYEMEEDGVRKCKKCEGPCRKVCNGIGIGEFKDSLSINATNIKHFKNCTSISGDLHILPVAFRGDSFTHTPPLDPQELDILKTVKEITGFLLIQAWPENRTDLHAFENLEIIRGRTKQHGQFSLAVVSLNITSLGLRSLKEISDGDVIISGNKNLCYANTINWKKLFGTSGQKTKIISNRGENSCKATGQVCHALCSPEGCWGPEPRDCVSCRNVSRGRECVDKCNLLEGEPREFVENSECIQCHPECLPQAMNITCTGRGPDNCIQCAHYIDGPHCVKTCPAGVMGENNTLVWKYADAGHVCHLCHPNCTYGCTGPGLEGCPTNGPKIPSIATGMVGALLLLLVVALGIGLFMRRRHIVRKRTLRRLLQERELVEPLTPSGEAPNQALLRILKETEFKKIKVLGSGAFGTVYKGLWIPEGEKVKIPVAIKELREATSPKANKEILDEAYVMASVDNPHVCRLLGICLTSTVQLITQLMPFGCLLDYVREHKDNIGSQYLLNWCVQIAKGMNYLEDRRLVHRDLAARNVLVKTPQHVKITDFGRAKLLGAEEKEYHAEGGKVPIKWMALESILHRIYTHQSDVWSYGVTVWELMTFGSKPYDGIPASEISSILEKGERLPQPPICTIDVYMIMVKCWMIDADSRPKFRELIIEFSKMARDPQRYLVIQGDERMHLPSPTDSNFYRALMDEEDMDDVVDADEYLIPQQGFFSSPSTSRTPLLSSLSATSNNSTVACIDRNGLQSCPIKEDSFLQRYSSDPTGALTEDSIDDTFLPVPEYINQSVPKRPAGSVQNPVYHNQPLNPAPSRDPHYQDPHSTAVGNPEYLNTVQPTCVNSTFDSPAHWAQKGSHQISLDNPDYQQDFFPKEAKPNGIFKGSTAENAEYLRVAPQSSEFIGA

For `CCn1cc(-c2ncnc3cc(OC)c(NC(=O)[C@@]45COC[C@@H]4C5)cc23)c(-c2ccccc2F)n1` (mixture of isomers) [Example 262, (1R,5R)—N-(4-(1-ethyl-3-(2-fluorophenyl)-1H-pyrazol-4-yl)-7-methoxyquinazolin-6-yl)-3-oxabicyclo[3.1.0]hexane-1-carboxamide and (1S,5S)—N-(4-(1-ethyl-3-(2-fluorophenyl)-1H-pyrazol-4-yl)-7-methoxyquinazolin-6-yl)-3-oxabicyclo[3.1.0]hexane-1-carboxamide], the IC50 (usually the concentration needed to halve the response being measured) in experiment [1] was 1.1 nM; at EGFR L858R, 1.1 nM; at EGFR (d746-750), 0.6 nM.

As to `COc1cc2ncnc(-c3cnn(CC(F)F)c3-c3ccc(F)cc3)c2cc1C1(O)CC1` [Example 490], the 50% inhibitory concentration (IC50) amounted to 836 nM in experiment [1], 82 nM at EGFR L858R and 237 nM at EGFR (d746-750).

Regarding `COc1cc2ncnc(-c3cn(CC(F)F)nc3-c3ccccc3)c2cc1NC(=O)[C@@]12COC[C@@H]1C2` [Example 276, (1R,5R)—N-(4-(1-(2,2-difluoroethyl)-3-phenyl-1H-pyrazol-4-yl)-7-methoxyquinazolin-6-yl)-3-oxabicyclo[3.1.0]hexane-1-carboxamide], the IC50 in experiment [1] worked out at 1.3 nM; at EGFR L858R, 2 nM; on EGFR (d746-750) it was 1.6 nM.

Turning to `COc1cc2ncnc(-c3cn(C)nc3-c3ccccc3)c2cc1OC(=O)N1CCN2CCCC2C1` (stereo in doubt) [Example 84, 7-methoxy-4-(1-methyl-3-phenyl-1H-pyrazol-4-yl)quinazolin-6-yl (S)-hexahydropyrrolo[1,2-a]pyrazine-2(1H)-carboxylate], the half-inhibitory concentration (IC50) in experiment [1] was 6.5 nM; at EGFR L858R it was 4.9 nM; on EGFR (d746-750) it was 3.3 nM.

As for `CCn1cc(-c2ncnc3cc(OC)c(NC(=O)C45CC(C4)C5)nc23)c(-c2ccccc2)n1` [Example 315, N-(4-(1-ethyl-3-phenyl-1H-pyrazol-4-yl)-7-methoxypyrido[3,2-d]pyrimidin-6-yl)bicyclo[1.1.1]pentane-1-carboxamide], the 50% inhibitory concentration (IC50) in experiment [1] was 0.6 nM; at EGFR L858R, 1.7 nM; on EGFR (d746-750) it was 1.1 nM.

In the case of `CCC(=O)Nc1cc2c(-c3cnn(C4COC4)c3-c3ccccc3)ncnc2cc1OC` [Example 499], the figures for the half-maximal inhibitory concentration (IC50) (in experiment [1]; on EGFR L858R; at EGFR (d746-750)) were 495 nM, 17 nM and 33 nM, respectively.

For the compound `COc1cc2ncnc(-c3cn(C)nc3-c3ccccc3)c2cc1O[C@H]1CN(C)C[C@H]1F` [Example 4, 6-(((3S,4R)-4-fluoro-1-methylpyrrolidin-3-yl)oxy)-7-methoxy-4-(1-methyl-3-phenyl-1H-pyrazol-4-yl)quinazoline], the half-inhibitory concentration (IC50) in experiment [1] was determined as 8.5 nM; on EGFR L858R, 4.1 nM; on EGFR (d746-750), 2.4 nM.

For `COc1cc2ncnc(-c3cn(C)nc3-c3ccccc3)c2cc1OC(=O)N1CCN(C)C[C@@H]1C` (stereo in doubt) [Example 59, 7-methoxy-4-(1-methyl-3-phenyl-1H-pyrazol-4-yl)quinazolin-6-yl(S)-2,4-dimethylpiperazine-1-carboxylate or 7-methoxy-4-(1-methyl-3-phenyl-1H-pyrazol-4-yl)quinazolin-6-yl (R)-2,4-dimethylpiperazine-1-carboxylate], the half-inhibitory concentration (IC50) came out at 4.2 nM in experiment [1], 3.3 nM at EGFR L858R and 2 nM on EGFR (d746-750).

On to `CCOc1cc2ncnc(-c3cn(C)nc3-c3ccccc3)c2cc1Cn1ncnc1C` [Example 134, 7-ethoxy-6-((5-methyl-1H-1,2,4-triazol-1-yl)methyl)-4-(1-methyl-3-phenyl-1H-pyrazol-4-yl)quinazoline], for which the 50% inhibitory concentration (IC50) in experiment [1] came to 11.6 nM; at EGFR L858R, 4 nM; at EGFR (d746-750) it was 2.1 nM.

For `CCOc1cc2ncnc(-c3cn(C4CC4)nc3-c3ccccc3)c2cc1CO` [Example 135, (4-(1-cyclopropyl-3-phenyl-1H-pyrazol-4-yl)-7-ethoxyquinazolin-6-yl)methanol], the half-inhibitory concentration (IC50) in experiment [1] was 3.1 nM; at EGFR L858R, 1.2 nM; on EGFR (d746-750) it was 0.7 nM.
